What was measured:
Format in all cases: cell-based
[1] = system: human adenocarcinoma cells; experiment: Recoding via quantification of pRB and P53, adenocarcinoma cells; conditions: Table 6, peptide in association with PET
Method: (§1) The cells were first fixed for 20 min with 4% paraformaldehyde/PBS at 4° C. After fixation, the cells were permeabilized in PBS containing 1% Triton X-100 for 15 min. Protein immunofluorescent visualization was performed by first treating the cells with 1% (v/v) specific monoclonal antibodies for 1 hour at 37° C. Then the samples were incubated with Alexa Fluor® 568 or 647 (F(ab′)2 fragment of IgG(H+L)) during 30 min at room temperature. The cell nuclei were counterstained in 20 ng/mL DAPI for 10 min at room temperature.
For this type of quantification the freeware image analysis ImageJ® software was used. The raw image was first converted to an 8-bit file, and then the unsharp mask feature was used (settings 1:0.2) to remove the image background (rolling ball radius 10). After smoothing, the resulting image, which appears similar to the original photomicrograph but with minimal background, was then converted to a binary image by setting a threshold. Threshold values were determined empirically by selecting a setting, which gave the most accurate binary image for a subset of randomly selected photomicrographs. The cell area was determined by manual delineation on raw fluorescent images. Total contact area and mean contact area per cell were calculated by “analyse particules” in ImageJ®. A minimum of 50 cells per condition were analyzed. […]

[2] = system: Smad1/5/8 signaling pathway; experiment: Growth factor receptor activation: western blot quantification of phospho-smad1/5/8; conditions: Table 4; human osteosarcoma cells MG63; quantification of western blots of phospho-smad1/5/8
Method: After 24 hours of culture, cells were permeabilized (10% SDS, 25 mM NaCl, 10 nM pepstatin and 10 nM leupeptin in distilled water and loading buffer), boiled for 10 minutes and resolved by reducing PAGE (Invitrogen). Proteins were transferred onto nitrocellulose, blocked, and labeled with HRP-conjugated antibodies (Invitrogen). Integrin αv, α5, +3, α4, β1, β3, β5 and […] were blotted by treating the nitrocellulose with monoclonal anti-integrin (extracellular domain) αv, α5, +3, α4, β1, β3, β5 and β6 antibodies (Santa Cruz Biotechnology). Phosphor-Smad1/5/8 was blotted by treating the nitrocellulose with monoclonal anti-p-Smad1/5/8 (Santa Cruz Biotechnology). For all of the experiments the western blot was performed in triplicate, along with an additional blot for actin and coomassie blue staining to ensure constant protein load among samples.

[3] = system: human osteosarcoma cells, MG63; experiment: Tumor cell recoding via quantification of pRB and p53 (immunofluorescence staining, ImageJ); conditions: MG63, quantification of pRB
Method: as §1
For this type of quantification the freeware image analysis ImageJ® software was used. The raw image was first converted to an 8-bit file, and then the unsharp mask feature was used (settings 1:0.2) to remove the image background (rolling ball radius 10). After smoothing, the resulting image, which appears similar to the original photomicrograph but with minimal background, was then converted to a binary image by setting a threshold. Threshold values were determined empirically by selecting a setting, which gave the most accurate binary image for a subset of randomly selected photomicrographs. The cell area was determined by manual delineation on raw fluorescent images. Total contact area and mean contact area per cell were calculated by “analyse particules” in ImageJ®. A minimum of 50 cells per condition were analyzed.
Neoplastic cells (in this example osteosarcoma cells) were cultured on pharmaceutical associations comprising PET as a bioactive carrier and one of GFR-binding compounds of SEQ ID NO: 11 to 14, 24 to 26 and 51 to 63. A rapid (24 hours) decrease of the tumor markers was observed (FIG. 7). The adhesion checkpoint then activates the tumor suppressor proteins p53 and pRB. […]

Sequence | P53 (%) [1] | pRB (%) [1] | p-Smad1/5/8 (%) [2] | pRB (%) ([3]; Table 4) | pRB (%) ([3]; Table 5)
AASKASSSRVKMSPINVLYF (Non-cyclic GFR-binding peptide) [SEQ ID NO: 225] | 25% | 12% |  |  | 
AASKASSVPEKMRPVQTRKI (Non-cyclic GFR-binding peptide) [SEQ ID NO: 237] | 42% | 22% |  |  | 
AASKASSVPQRLRSVKVAKV (Non-cyclic GFR-binding peptide) [SEQ ID NO: 235] | 40% | 26% |  |  | 
ASAAPSSAPTALSATSVLYY (Non-cyclic GFR-binding peptide) [SEQ ID NO: 82] |  |  | 41% | 19% | 19%
ASAAPSSVPQALEPLTILYY (Non-cyclic GFR-binding peptide) [SEQ ID NO: 77] |  |  | 55% | 15% | 15%
ASAAPSSVPQALRSVKVAKV (Non-cyclic GFR-binding peptide) [SEQ ID NO: 88] |  |  | 37% | 18% | 18%
ASAAPSSVPQALSSLSILFF (Non-cyclic GFR-binding peptide) [SEQ ID NO: 67] |  |  | 38% | 15% | 15%
ASASPSSVPQDLRSVKVAKV (Non-cyclic GFR-binding peptide) [SEQ ID NO: 90] |  |  | 56% | 9% | 9%
ASASPSSVSQDLEPLTILYY (Non-cyclic GFR-binding peptide) [SEQ ID NO: 78] |  |  | 52% | 18% | 18%
ASASPSSVSQDLSSLSILFF (Non-cyclic GFR-binding peptide) [SEQ ID NO: 68] |  |  | 40% | 14% | 14%
AVPKASSAPTKLEPISILYL (Non-cyclic GFR-binding peptide) [SEQ ID NO: 70] |  |  | 67% | 21% | 21%
GIPEPSSAPVDMRPVQIRKI (Non-cyclic GFR-binding peptide) [SEQ ID NO: 238] | 40% | 23% |  |  | 
GIPEPSSAPVEEEPLTTLYY (Non-cyclic GFR-binding peptide) [SEQ ID NO: 232] | 21% | 13% |  |  | 
GIPEPSSTPTKMSPINMLYF (Non-cyclic GFR-binding peptide) [SEQ ID NO: 94] |  |  | 39% | 9% | 9%
GIPEPSSVPQKMEPLPIVYY (Non-cyclic GFR-binding peptide) [SEQ ID NO: 75] |  |  | 51% | 10% | 10%
HVPKPSSAPTKLEPISILYL (Non-cyclic GFR-binding peptide) [SEQ ID NO: 100] |  |  | 75% | 19% | 19%
KASKASSVPQKLEPLPIVYY (Non-cyclic GFR-binding peptide) [SEQ ID NO: 85] |  |  | 22% | 10% | 10%
KIPKASSTPTELSPINMLYF (Non-cyclic GFR-binding peptide) [SEQ ID NO: 93] |  |  | 47% | 7% | 7%
KIPKASSVPQELEPLPIVYY (Non-cyclic GFR-binding peptide) [SEQ ID NO: 74] |  |  | 44% | 9% | 9%
KIPKASSVPTELSPISVLYK (Non-cyclic GFR-binding peptide) [SEQ ID NO: 87] |  |  | 32% | 21% | 21%
KVGKASSVPQKLEPLPIVYY (Non-cyclic GFR-binding peptide) [SEQ ID NO: 84] |  |  | 33% | 9% | 9%

Sequence | P53 (%) [1] | pRB (%) [1] | p-Smad1/5/8 (%) [2] | pRB (%) ([3]; Table 4) | pRB (%) ([3]; Table 5)
KVGKASSVPTKLEPISILYL (Non-cyclic GFR-binding peptide) [SEQ ID NO: 71] |  |  | 66% | 17% | 17%
NDEGLESVPTEEEPLTILYY (Non-cyclic GFR-binding peptide) [SEQ ID NO: 79] |  |  | 58% | 17% | 17%
NDEGLESVPTEERSVKVAKV (Non-cyclic GFR-binding peptide) [SEQ ID NO: 91] |  |  | 55% | 12% | 12%
NDEGLESVPTEESAISMLYL (Non-cyclic GFR-binding peptide) [SEQ ID NO: 96] |  |  | 78% | 22% | 22%
NDEGLESVPTEESSLSILFF (Non-cyclic GFR-binding peptide) [SEQ ID NO: 80] |  |  | 27% | 9% | 9%
RNVQSRPTQVQLKPLSMLYV (Non-cyclic GFR-binding peptide) [SEQ ID NO: 73] |  |  | 48% | 16% | 16%
RNVQSRPTQVQLSPISILFI (Non-cyclic GFR-binding peptide) [SEQ ID NO: 98] |  |  | 34% | 17% | 17%
RNVQSRPVPTQLSPISVLYK (Non-cyclic GFR-binding peptide) [SEQ ID NO: 86] |  |  | 26% | 24% | 24%
RVPSTSSAPTKTSATSVLYY (Non-cyclic GFR-binding peptide) [SEQ ID NO: 81] |  |  | 34% | 17% | 17%
SIPKASSTPTELSPINMLYF (Non-cyclic GFR-binding peptide) [SEQ ID NO: 64] |  |  | 37% | 23% | 23%
SIPKASSVPQELEPLPIVYY (Non-cyclic GFR-binding peptide) [SEQ ID NO: 76] |  |  | 54% | 8% | 8%
SSVKSQPSRVHHKPLSMLYV (Non-cyclic GFR-binding peptide) [SEQ ID NO: 72] |  |  | 47% | 19% | 19%
SSVKSQPSRVHHSPISILFI (Non-cyclic GFR-binding peptide) [SEQ ID NO: 97] |  |  | 39% | 14% | 14%
TKPTSTPTKLSPINMLYF (Non-cyclic GFR-binding peptide) [SEQ ID NO: 65] |  |  | 36% | 10% | 10%
TQVKMRPVQVRKI (Non-cyclic GFR-binding peptide) [SEQ ID NO: 92] |  |  | 44% | 8% | 8%
TVPKPSSAPTQLRSVKVAKV (Non-cyclic GFR-binding peptide) [SEQ ID NO: 83] |  |  | 35% | 12% | 12%
VPTGQSAISMLYL (Non-cyclic GFR-binding peptide) [SEQ ID NO: 95] |  |  | 52% | 17% | 17%
VSQDLRSVKVAKV (Non-cyclic GFR-binding peptide) [SEQ ID NO: 89] |  |  | 36% | 17% | 17%
VVPKPSSAPTQLEPISILYL (Non-cyclic GFR-binding peptide) [SEQ ID NO: 69] |  |  | 39% | 20% | 20%
YVPKPSSAPTKLNAISVLYF (Non-cyclic GFR-binding peptide) [SEQ ID NO: 99] |  |  | 66% | 21% | 21%
YVPKPSSTPTKLSPINMLYF (Non-cyclic GFR-binding peptide) [SEQ ID NO: 66] |  |  | 38% | 8% | 8%

Source: US20220273759A1, “PHARMACEUTICAL ASSOCIATION FOR CONVERTING A NEOPLASTIC CELL INTO A NON-NEOPLASTIC CELL AND USES THEREOF” (HISTIDE AG, priority 2015, published 2022)
